Key:
CDK2 [1] = molecular target: T1, CDK2 (Homo sapiens, UniProt P24941); assay: High-throughput HTRF measurement of cellular endogenous CDK2 level (degradation, DC50/Dmax) in OVCAR3 cells, 6 h; type: cell-based; conditions: 6 h compound treatment, HTRF total CDK2, read-out: DC50_OVCAR3_6h
T1 construct: High-Throughput Measurement of Cellular Endogenous CDK2; endogenous in cells; host or cells: OVCAR3
Experimental: High-Throughput Measurement of Cellular Endogenous CDK2
Effects of compounds on cellular CDK2 level were monitored by a high-throughput HTRF assay.
To determine half maximal degradation concentration (DC50) and maximum degradation level (Dmax) values of compounds, cellular CDK2 level was measured in 96-well format using HTRF total CDK2 cellular kit (Cat #64CDK2TPEG) from Cisbio.
On Day 1, OVCAR3 cells were seeded into 96-well tissue-culture treated plates at 20,000 cells/well in 200 μL and incubated overnight at 37° C. in CO2 atmosphere. On Day 2 cells were treated with compounds at concentration ranging from 0.03 to 1,000 nM using HP D300 digital dispenser. 6 hours after compound treatment, cell culture media was removed by flicking the plate and tapping the plate against clean paper towel. Immediately 30 μL 1× lysis buffer was supplemented from the kit and added to each well and the plate is incubated at room temperature on shaker for 30 min. After homogenization by pipetting up and down, 8 μL cell lysate from 96-well cell culture plate was transferred to 384-well small volume white detection plate. 2 μL premixed detection solution was added and the plate is covered with sealer. To prepare the detection solution, d2 conjugated-CDK2 antibody and Eu-cryptate conjugated CDK2 antibody were diluted into detection buffer following manufacturer's instruction. Detection plates were incubated overnight at room temperature and read on ClarioStar (BMG Labtech) in TR-FRET mode (665 nM and 620 nM). The TR-FRET ratio (665 nM/620 nM) was plotted against the compound concentration and normalized to DMSO controls (0% degradation) and lysis buffer controls (100% degradation). Half maximal degradation concentration (DC 50) […] were calculated with a four-parameter logistic fit using GraphPad Prism (version 8; La Jolla, CA).
In the table below, AA indicates a DC50 of greater than or equal to 0.5 nM but less than 1 nM; A indicates a DC50 of greater than or equal to 1 nM but less than or equal to 10 nM; B indicates a DC50 of greater than 10 nM but less than or equal to 100 nM; C indicates a DC50 of greater than 100 nM but less than or equal to 1 μM; and D indicates a DC50 of greater than 1 μM […] but less than or equal to 5 μM. NT means not tested.

CDK2 [2] = molecular target: T1, CDK2; assay: Inhibition of CDK2: phospho-Rb (S807/811) HTRF measurement in OVCAR3 cells, 24 h; type: cell-based; conditions: 24 h compound treatment, read-out: pRB_OVCAR3_24h
Summary of the method: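 OVCAR3 cells, seeded overnight, were exposed to compounds at 0.3 to 10,000 nM for 24 h, then lysed. Rb S807/811 phosphorylation read by HTRF (665/620 nm ratio) after 4 h detection at room temperature; data normalized to DMSO and IC50 from four-parameter logistic fit.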

SMILES	DC50 (CDK2 [1]) [nM]	IC50 (CDK2 [2]) [nM]
Cn1nc(N2CCC(=O)NC2=O)c2ccc(C3CCN(CC4CCN(c5cccc(S(=O)(=O)N6CC[C@H](Nc7ncc(Cl)cn7)[C@H](F)C6)c5)CC4)CC3)cc21 (racemic) [Example 202, Rac-1-(6-(1-((1-(3-(((3R,4S)-4-((5-chloropyrimidin-2-yl)amino)-3-fluoropiperidin-1-yl)sulfonyl)phenyl)piperidin-4-yl)methyl)piperidin-4-yl)-1-methyl-1H-indazol-3-yl)dihydropyrimidine-2,4(1H,3H)-dione]	1 to 10	1 to 100
Cn1nc(N2CCC(=O)NC2=O)c2ccc(C3CCN(CC4CCN(c5cccc(S(=O)(=O)N6CC[C@H](Nc7ncc(C(F)(F)F)cn7)[C@H](F)C6)c5)CC4)CC3)cc21 (racemic) [Example 223, Rac-1-(6-(1-((1-(3-(((3R,4S)-3-fluoro-4-((5-(trifluoromethyl)pyrimidin-2-yl)amino)piperidin-1-yl)sulfonyl)phenyl)piperidin-4-yl)methyl)piperidin-4-yl)-1-methyl-1H-indazol-3-yl)dihydropyrimidine-2,4(1H,3H)-dione]	1 to 10	1 to 100
Cn1nc(N2CCC(=O)NC2=O)c2ccc(C3CCN(Cc4cccc(S(=O)(=O)N5CCC(Nc6ncc(C(F)(F)F)cn6)CC5)c4)CC3)cc21 [Example 1]	1 to 10	1 to 100
Cn1nc(N2CCC(=O)NC2=O)c2ccc(C3CCN(Cc4cccc(S(=O)(=O)N5CCC(Nc6ncc(C(F)(F)F)cn6)CC5)c4)CC3)c(F)c21 [Example 2, 1-(7-fluoro-1-methyl-6-(1-(3-((4-((5-(trifluoromethyl)pyrimidin-2-yl)amino)piperidin-1-yl)sulfonyl)benzyl)-piperidin-4-yl)-1H-indazol-3-yl)dihydropyrimidine-2,4(1H,3H)-dione]	10 to 100	1 to 100
Cn1nc(N2CCC(=O)NC2=O)c2ccc(C3CCN(CC4CCN(c5cccc(S(=O)(=O)c6ccc(Nc7ncc(C(F)(F)F)cn7)cc6)c5)CC4)CC3)cc21 [Example 245, 1-(1-methyl-6-(1-((1-(3-((4-((5-(trifluoromethyl)pyrimidin-2-yl)amino)phenyl)sulfonyl)phenyl)piperidin-4-yl)methyl)piperidin-4-yl)-1H-indazol-3-yl)dihydropyrimidine-2,4(1H,3H)-dione]	–	> 2500
Cn1nc(C2CCC(=O)NC2=O)c2ccc(C3CCN(CC4CCN(c5cccc(S(=O)(=O)N6CCC(Nc7ncc(Cl)cn7)CC6)c5)CC4)CC3)cc21 (stereo not drawn) [Example 246, 3-(6-(1-((1-(3-((4-((5-chloropyrimidin-2-yl)amino)piperidin-1-yl)sulfonyl)phenyl)piperidin-4-yl)methyl)piperidin-4-yl)-1-methyl-1H-indazol-3-yl)piperidine-2,6-dione]	–	500 to 2500
Cn1nc(N2CCC(=O)NC2=O)c2ccc(C3CN(CC4CCN(c5cccc(S(=O)(=O)N6CCC(Nc7ncc(Cl)cn7)CC6)c5)CC4)C3)cc21 [Example 249, 1-(6-(1-((1-(3-((4-((5-chloropyrimidin-2-yl)amino)piperidin-1-yl)sulfonyl)phenyl)piperidin-4-yl)methyl)azetidin-3-yl)-1-methyl-1H-indazol-3-yl)dihydropyrimidine-2,4(1H,3H)-dione]	–	100 to 500
Cn1nc(N2CCC(=O)NC2=O)c2ccc(C3CCN(CC4CCN(c5cccc(S(=O)(=O)N6CCC(Nc7ncc(OC8CC8)cn7)CC6)c5)CC4)CC3)cc21 [Example 252, 1-(6-(1-((1-(3-((4-((5-cyclopropoxypyrimidin-2-yl)amino)piperidin-1-yl)sulfonyl)phenyl)piperidin-4-yl)methyl)piperidin-4-yl)-1-methyl-1H-indazol-3-yl)dihydropyrimidine-2,4(1H,3H)-dione]	–	100 to 500
CC(C)Oc1cnc(NC2CCN(S(=O)(=O)c3cccc(N4CCC(CN5CCC(c6ccc7c(N8CCC(=O)NC8=O)nn(C)c7c6)CC5)CC4)c3)CC2)nc1 [Example 253, 1-(6-(1-((1-(3-((4-((5-isopropoxypyrimidin-2-yl)amino)piperidin-1-yl)sulfonyl)phenyl)piperidin-4-yl)methyl)piperidin-4-yl)-1-methyl-1H-indazol-3-yl)dihydropyrimidine-2,4(1H,3H)-dione]	–	> 2500
Cn1cc(C2CCC(=O)NC2=O)c2ccc(C3CCN(CC4CCN(c5cccc(S(=O)(=O)N6CCC(Nc7ncc(Cl)cn7)CC6)c5)CC4)CC3)cc21 (stereo not drawn) [Example 254, 3-(6-(1-((1-(3-((4-((5-chloropyrimidin-2-yl)amino)piperidin-1-yl)sulfonyl)phenyl)piperidin-4-yl)methyl)piperidin-4-yl)-1-methyl-1H-indol-3-yl)piperidine-2,6-dione]	–	100 to 500
Cn1nc(N2CCC(=O)NC2=O)c2ccc(C3CCN(C[C@H]4CCCN4c4cc(S(=O)(=O)N5CCC(Nc6ncc(OC(F)F)cn6)CC5)ccc4C#N)CC3)cc21 [Example 255, (R)-4-((4-((5-(difluoromethoxy)pyrimidin-2-yl)amino)piperidin-1-yl)sulfonyl)-2-(2-((4-(3-(2,4-dioxotetrahydropyrimidin-1(2H)-yl)-1-methyl-1H-indazol-6-yl)piperidin-1-yl)methyl)pyrrolidin-1-yl)benzonitrile]	–	100 to 500
Cn1nc(N2CCC(=O)NC2=O)c2ccc(C3CCN(C[C@@H]4CCCN4c4cc(S(=O)(=O)N5CCC(Nc6ncc(OC(F)F)cn6)CC5)ccc4C#N)CC3)cc21 [Example 256, (S)-4-((4-((5-(difluoromethoxy)pyrimidin-2-yl)amino)piperidin-1-yl)sulfonyl)-2-(2-((4-(3-(2,4-dioxotetrahydropyrimidin-1(2H)-yl)-1-methyl-1H-indazol-6-yl)piperidin-1-yl)methyl)pyrrolidin-1-yl)benzonitrile]	–	100 to 500
Cn1nc(N2CCC(=O)NC2=O)c2ccc(C3CCN(C[C@@H]4CCCN(c5cccc(S(=O)(=O)N6CCC(Nc7ncc(OC(F)F)cn7)CC6)c5)C4)CC3)cc21 [Example 257, (S)-1-(6-(1-((1-(3-((4-((5-(difluoromethoxy)pyrimidin-2-yl)amino)piperidin-1-yl)sulfonyl)phenyl)piperidin-3-yl)methyl)piperidin-4-yl)-1-methyl-1H-indazol-3-yl)dihydropyrimidine-2,4(1H,3H)-dione]	–	100 to 500
Cn1nc(N2CCC(=O)NC2=O)c2ccc(C3CCN(C[C@H]4CCCN(c5cccc(S(=O)(=O)N6CCC(Nc7ncc(OC(F)F)cn7)CC6)c5)C4)CC3)cc21 [Example 258, (R)-1-(6-(1-((1-(3-((4-((5-(difluoromethoxy)pyrimidin-2-yl)amino)piperidin-1-yl)sulfonyl)phenyl)piperidin-3-yl)methyl)piperidin-4-yl)-1-methyl-1H-indazol-3-yl)dihydropyrimidine-2,4(1H,3H)-dione]	–	100 to 500
Cn1nc(N2CCC(=O)NC2=O)c2ccc(C3CCN(C[C@@H]4CCCN4c4cccc(S(=O)(=O)N5CCC(Nc6ncc(OC(F)F)cn6)CC5)c4)CC3)cc21 [Example 259, (S)-1-(6-(1-((1-(3-((4-((5-(difluoromethoxy)pyrimidin-2-yl)amino)piperidin-1-yl)sulfonyl)phenyl)pyrrolidin-2-yl)methyl)piperidin-4-yl)-1-methyl-1H-indazol-3-yl)dihydropyrimidine-2,4(1H,3H)-dione]	–	500 to 2500
Cn1nc(N2CCC(=O)NC2=O)c2ccc(C3CCN(C[C@H]4CCCCN4c4cccc(S(=O)(=O)N5CCC(Nc6ncc(OC(F)F)cn6)CC5)c4)CC3)cc21 [Example 260, (R)-1-(6-(1-((1-(3-((4-((5-(difluoromethoxy)pyrimidin-2-yl)amino)piperidin-1-yl)sulfonyl)phenyl)piperidin-2-yl)methyl)piperidin-4-yl)-1-methyl-1H-indazol-3-yl)dihydropyrimidine-2,4(1H,3H)-dione]	–	100 to 500
Cn1nc(N2CCC(=O)NC2=O)c2ccc(C3CCN(C[C@@H]4CCCCN4c4cccc(S(=O)(=O)N5CCC(Nc6ncc(OC(F)F)cn6)CC5)c4)CC3)cc21 [Example 261, (S)-1-(6-(1-((1-(3-((4-((5-(difluoromethoxy)pyrimidin-2-yl)amino)piperidin-1-yl)sulfonyl)phenyl)piperidin-2-yl)methyl)piperidin-4-yl)-1-methyl-1H-indazol-3-yl)dihydropyrimidine-2,4(1H,3H)-dione]	–	100 to 500

— patent US20260167623A1 (NIKANG THERAPEUTICS, INC., priority 2022, published 2026)
